Experimental data reported in patent publication US6545019B2, “Method of modulating microglial activation for the treatment of acute and chronic neurodegenerative disorders” (Bristol-Myers Squibb Company, priority 2000, dated 2003).
Entries after “also recorded” stand apart in the source; their conditions may differ.

Columns and labels:
[1] = test system: LPS activated rat microglia cells; assay: Nitrite (NO) release from LPS activated rat primary microglia (Modified Griess Reagent); format: cell-based; settings: 100 ng/ml LPS, compound 1 hr before LPS, supernatant 24 hrs post-LPS
Method: (§1) Rat microglia were prepared from two day old rat pups. Pup brains were removed and the meninges were gently removed. Once sufficient amount of brains were collected, brains were minced with a blunt scissors (10 times) and transferred to a 15ml conical tube with a pasteur pipette and titurated 25 times. Dissociated cells were then centrifuged at 1000 RPM for 10 minutes (RT). The supernatant was removed and 2 mls of fresh media was added. The resultant cell suspension was titurated 10 times. Following titration the cell suspension was plated in a T175 cm^2 culture flasks at a density of 4 brains per flask in 25 mls. MEM media was used for the experiments, supplemented with 10% FBS, 100 i.u.penicillin, 100 i.u.streptomycin and L-Glutamine. Microglia were isolated on day 14 by shaking on an orbital rotation shaker. The purity of the cultures was 98-100% as determined by immunostaining with ED-40 antibody.
(§2) Endotoxin (LPS) at a concentration of a 100 ng/ml were used for activation of rat microglia cells. This concentration had previously shown to be effective in inducing TNF-alpha and Nitrite release. All assays were performed in 48 well plates (Becton Dickinson) at ˜2×10^5 cells or 0.5×10^5 per 1 ml per well in 10% MEM media. Microglia cells were pre-incubated 1 hr prior to LPS challenge with either vehicle (0.1%DMSO) or test compound in DMEM containing 10%FBS (microglia) or RPMI containing 10%FBS (THP-1 monocytes). Supernatants from LPS activated rat microglia were collected at 24 hrs post-LPS challenge.
Nitrite assay was performed in a 96 well plate using a Modified Griess Reagent (Sigma). In brief, a 100 ul of Modified Griess Reagent was added to a 100 ul of collected supernatant. Samples were read at a wavelength of 540nm. All values were calculated against a NaNO2 standard curve.

IκBα = assay: LPS mediated IκBα degradation in microglia (immunoblotting); format: cell-based, rat; settings: 100 ng/ml LPS, 10μM ATFMK, 50μM L-655,238
Method: Immunoblotting was carried out as described previously (Parvathenani et al., 2000). Briefly 25μg of protein was fractionated on a 4-20% tris-glycine gel (NOVEX, Calif.) and transferred to PVDF membrane (NOVEX, Calif.). The membrane was probed with a polyclonal antibody specific for IκBα. To distinguish between the phosphorylated and non-phosphorylated forms of cPLA2, 50μg of protein was run on an 8% tris-glycine gel (Novex, Calif.) for 4.5 hours at 125V, transferred and probed with a monoclonal antibody specific for cPLA2.
Effects of cPLA2 and 5-LOX inhibitors on LPS mediated IκBα degradation. Microglia were treated with 100 ng/ml of LPS for various periods of time following which whole cell lysates were prepared and run on SDS-PAGE, transferred and probed with a IκBα antibody as mentioned in immunoblotting. (6A) 100 ng/ml LPS alone, (6B) LPS+10μM ATFMK, (6C) LPS+50μM L-655,238.

[2] = test system: LPS activated rat microglia cells; assay: TNF-alpha release from LPS activated rat primary microglia (ELISA); format: cell-based; settings: for TNF-alpha release: rat primary microglia, 100 ng/ml LPS, compound 1 hr before LPS, supernatant 24 hrs post-LPS
Method: as §1, §2
Collected supernatants were assayed for TNF-alpha using a Pharmingen OPtEIA Rat (microglia).

NF-κB (p65) = assay: LPS mediated NF-κB (p65) nuclear translocation in microglia (indirect immunofluorescence); format: cell-based, rat; settings: 100 ng/ml LPS, 5 min, 10μM ATFMK, 50μM L-655,238
Method: Cells were washed once with PBS, fixed and permeabilized with ice cold methanol (100%) for 5 minutes and washed 3× in PBS for 10 min. The cover slips were blocked for 1 hour in 10% serum/PBS (serum derived from animal in which secondary antibody was generated), incubated for 2-3 hours in primary antibody solution (1:50 dilution in 1.5% serum/PBS) and washed 3× in PBS for 10 min. Secondary antibody linked to fluorescein was applied for one hour (1:100 dilution in 1.5% serum/PBS) and washed 3× in PBS for 10 min. If the nucleus was stained, the cells were incubated for 15 minutes with DAPI (1:10000) at 37° C. and washed. The coverslips were then mounted onto glass slides using mounting media and viewed under a fluorescence microscope.
Effects of cPLA2 and 5-LOX inhibitors on LPS mediated NF-κB translocation. Microglia were treated with 100 ng/ml of LPS for various periods of time following which p65 distribution was assessed by indirect immunofluorescence (7A) control, (7B) LPS-5 min., (7C) LPS+10μM ATFMK—5 min., (7D) LPS+50μM L-655,238—5 min. (7E) LPS+NDGA-20μM—5 min.

IκBα phosphorylation = settings: irreversible inhibitor; read-out: IC50, inhibition of IκBα phosphorylation; cited from earlier work
5-LOX = settings: cited from earlier work
COX = settings: cited from earlier work

Row | Compound | nitrite (NO) release [1] | TNF-alpha release [2] | further results
1 | CCCCC/C=C\C/C=C\C/C=C\C/C=C\CCCC(=O)C(F)(F)F [ATFMK, arachidonyltrifluoromethyl ketone] | significant dose-dependent inhibition; also recorded: significantly inhibited nitrite release | significant dose-dependent inhibition; also recorded: significantly inhibited TNF-alpha release | degradation of IκBα following LPS stimulation (IκBα): attenuated the degradation of IκBα; translocation of NF-κB into the nucleus (NF-κB (p65)): delayed the translocation of NF-κB into the nucleus
2 | CC(C)(C)c1ccc(S(=O)(=O)/C=C/C#N)cc1 [BAY 11-7085, (E)3-((4-t-Butylphenyl)sulfonyl)-2-propenenitrile] | inhibited LPS induced TNFα and NO release to control levels | inhibited LPS induced TNFα and NO release to control levels | IC50 (IκBα phosphorylation): 10 µM
3 | O=C(CCc1ccc(OCCS(=O)(=O)CCOC(c2ccc(Cl)cc2)c2ccc(Cl)cc2)cc1)C(F)(F)F [BMS 229724] | significant dose-dependent inhibition | significant dose-dependent inhibition | TNF-alpha release ([2]; listed as BMS-229724): significantly inhibited TNF-alpha release
4 | CC(C)Cc1ccc(C(C)C(=O)O)cc1 (centres unmarked) [Ibuprofen] |  | failed to produce any reduction in TNF-alpha release | 
5 | CC(Cc1ccc(O)c(O)c1)C(C)Cc1ccc(O)c(O)c1 (centres unmarked) [NDGA, nordihdroguaiaretic acid] | dose dependently inhibited TNF-alpha release and nitrite to near control levels | dose dependently inhibited TNF-alpha release and nitrite to near control levels; also recorded: significantly inhibited TNF-alpha release | IC50 (5-LOX): […]; IC50 (COX): 100 µM
6 | Cc1ccc(-c2cc(C(F)(F)F)nn2-c2ccc(S(N)(=O)=O)cc2)cc1 [celecoxib] |  |  | pro-inflammatory release on activated microglia [2]: no significant effect
7 | CCCCCC(O)c1ccc(Cc2cnc3ccccc3c2)cc1 (stereo not drawn) [para-REV5901, α-pentyl-4-(3-quinolinylmethyl)benzenemethanol] | dose dependently inhibited TNF-alpha release and nitrite to near control levels; also recorded: significantly inhibited nitrite release | dose dependently inhibited TNF-alpha release and nitrite to near control levels; also recorded: significantly inhibited TNF-alpha release | IC50 (5-LOX): 0.1 µM; degradation of IκBα following LPS stimulation (IκBα): attenuated the degradation of IκBα; translocation of NF-κB into the nucleus (NF-κB (p65)): delayed the translocation of NF-κB into the nucleus
8 | CS(=O)(=O)c1ccc(C2=C(c3ccccc3)C(=O)OC2)cc1 [rofecoxib] |  | failed to produce any reduction in TNF-alpha release | pro-inflammatory release on activated microglia [2]: no significant effect
